Data taken from ChEMBL document CHEMBL3507680, “University of Dundee, Gates Library screen for HepG2 cell viability”.

Test: Human HepG2 cell viability assay in 384 well format
Type: toxicity, cell-based
Parameters: dose 125 nL, time 70.5 hour; concentration not given beside the values
Details: HepG2 cells, read-out: Inhibition
`O=S1(=O)NC(c2ccnc(N3CCCCC3)n2)=Nc2ccccc21` gave a cytotoxicity at 70.5 h of 7.4%.
With `CCN(C(=O)NCc1ccc(C)cc1OC)C(C)c1cccnc1` (stereo unspecified) the cytotoxicity at 70.5 h was -6.56%.
Compound `CN(CCOc1cccc(Cl)c1)Cc1nnc(C(C)(C)C)o1` has a cytotoxicity at 70.5 h of -2.27%.
Compound `Nc1nc(N)c2c(n1)OC1(CCN(C(=O)CC3CCCNC3)CC1)C2` (stereo unspecified) has a cytotoxicity at 70.5 h of 1.11%.
`CCN(CC1CC1)C(=O)NCc1nnc2n1CCC2` gave a cytotoxicity at 70.5 h of 1.57%.
In the case of `CC(=O)c1c(F)cccc1N1CCC(C(N)=O)CC1`, the cytotoxicity at 70.5 h was -1.92%.
`CCOCCn1nc(C)cc1C(=O)N1CC[C@](C)(O)[C@H](C)C1` showed a cytotoxicity at 70.5 h of -8.61%.
For `CC(=O)N1CCCN(C(=O)NCc2ccccn2)CC1`, the cytotoxicity at 70.5 h was 3.62%.
With `CN(Cc1nc(-c2ccco2)no1)C1CCCN(c2cccnn2)C1` (stereo unspecified) the cytotoxicity at 70.5 h was -14.4%.
With `CS(=O)(=O)N1CCC(C(=O)NC(Cc2ccsc2)c2ccccn2)CC1` (stereo unspecified) the cytotoxicity at 70.5 h was -3.67%.
In the case of `c1ccc(-c2cnc(CN3CCCC3Cn3cccn3)o2)cc1` (stereo unspecified), the cytotoxicity at 70.5 h was 1.69%.
For `NC[C@H]1CC[C@H](C(NC(=O)c2ccccn2)c2ccccn2)CC1` (stereo partly specified), the cytotoxicity at 70.5 h was -4.69%.
With `CCOCCN1CCN(Cc2nc(C3CC3)no2)CC1CC` (stereo unspecified) the cytotoxicity at 70.5 h was 18.8%.
Compound `COCc1nc(CNC2CCC3(CCNCC3)CC2)no1` has a cytotoxicity at 70.5 h of -8.94%.
`O=S(=O)(c1ccc(F)cc1)N1CCN(CCCn2ccnc2)CC1` showed a cytotoxicity at 70.5 h of -1.51%.
`COc1cccc(CCC2CCCN(C(=O)c3ccc(=O)n(C)n3)C2)c1` (stereo unspecified) showed a cytotoxicity at 70.5 h of -6.31%.
`FC(F)(F)c1cccc(CN2CCOC[C@H](Oc3cccnc3)C2)c1` gave a cytotoxicity at 70.5 h of -1.63%.
Work on `CN1CCN(S(=O)(=O)c2cncc(F)c2)c2ccccc2C1` yielded a cytotoxicity at 70.5 h of -11.8%.
Work on `O=C(NCCCO)Nc1cccc(I)c1` yielded a cytotoxicity at 70.5 h of -5.84%.
`Cn1cc(CN2CCc3ncn(C)c3C2COCc2ccccc2)cn1` (stereo unspecified) showed a cytotoxicity at 70.5 h of 2.01%.
Work on `CCc1cnc(CN(C)C2CCN(CCc3cccs3)C2)o1` (stereo unspecified) yielded a cytotoxicity at 70.5 h of -4.48%.
In the case of `CCc1nc(CN2CCCN(c3ncnc4ccsc34)CC2)no1`, the cytotoxicity at 70.5 h was 8.93%.
Work on `CCc1nc(CNCC2CCCN2c2cccnn2)cs1` (stereo unspecified) yielded a cytotoxicity at 70.5 h of -6.05%.
`COC(=O)CCC(=O)N(C/C=C/c1ccccc1)CCO` showed a cytotoxicity at 70.5 h of 23.1%.
`O=C(Cc1ccccn1)NCC1OCCc2cn(CC3CC3)nc21` (stereo unspecified) gave a cytotoxicity at 70.5 h of 11.2%.
Work on `O=C(COC1CCCC1)NCCCn1nc2ccccn2c1=O` yielded a cytotoxicity at 70.5 h of -16.2%.
In the case of `Cc1ccccc1CN1CCC(NCC2CNc3ccnn3C2)CC1` (stereo unspecified), the cytotoxicity at 70.5 h was 0.228%.
For `COCCN(Cc1cccs1)C(=O)C1CCCN(C(N)=O)C1` (stereo unspecified), the cytotoxicity at 70.5 h was 14.1%.
In the case of `CCC(=O)Nc1ccc(N2CCC(OC)CC2)c(C(F)(F)F)c1`, the cytotoxicity at 70.5 h was -4.77%.
Compound `COCCN1CCN(S(C)(=O)=O)Cc2cccnc21` has a cytotoxicity at 70.5 h of -5.85%.
Compound `CCCn1cc(C(=O)NC2CCN(CC(=O)NC3CC3)CC2)c(C)n1` has a cytotoxicity at 70.5 h of 0.264%.
With `O=C(c1ccc(C2CCCO2)s1)N1CCOCC1` (stereo unspecified) the cytotoxicity at 70.5 h was -5.89%.
Compound `CC(=O)N1CCOC[C@H](Oc2ccc(C(F)(F)F)cc2)C1` has a cytotoxicity at 70.5 h of 1.19%.
`COc1ccc(CNC(=O)NC2CCN(CC(F)F)CC2)cc1C` showed a cytotoxicity at 70.5 h of -7.09%.
Compound `CC(=O)NCCCNC(=O)N(C)C(C)Cc1ccc(Cl)cc1` (stereo unspecified) has a cytotoxicity at 70.5 h of -8.06%.
In the case of `CCNC(=O)NC(=O)CN1CCOC(c2ccc(Br)cc2)C1` (stereo unspecified), the cytotoxicity at 70.5 h was -3.93%.
Work on `CNC(=O)CN1CC[C@H]2CN(C(=O)c3cccn3C)C[C@H]2C1` yielded a cytotoxicity at 70.5 h of -5.44%.
With `Cc1cc(CNC(=O)N2CCN(c3ccc(Cl)cn3)CC2)c(C)o1` the cytotoxicity at 70.5 h was 18.2%.
For `Cc1nccc(N2CCC(=O)N(Cc3ccc(F)cc3)C(C(C)C)C2)n1` (stereo unspecified), the cytotoxicity at 70.5 h was -2.7%.
Work on `CCN(Cc1ccoc1)C(=O)c1cc2c(c(S(N)(=O)=O)c1)CCC2` yielded a cytotoxicity at 70.5 h of -8.02%.
`C[C@H]1C[C@@H]2CCN(C(=O)c3ccccn3)C[C@H]2O1` showed a cytotoxicity at 70.5 h of -2.22%.
With `COCc1ncn2c1CN(C(=O)c1ccc3ccccc3n1)CC2` the cytotoxicity at 70.5 h was 6.36%.
In the case of `CNS(=O)(=O)CC(=O)NCc1cc2c(s1)CCC(C)(C)C2`, the cytotoxicity at 70.5 h was -1.59%.
For `COC(=O)CC(NC(=O)c1cccc(N2CCCC2=O)c1)C(=O)OC` (stereo unspecified), the cytotoxicity at 70.5 h was 0.259%.
`CCCc1nc(NCCCn2ccnc2)c2c(n1)c(C)nn2CC` gave a cytotoxicity at 70.5 h of -11.1%.
`COc1cc(C(=O)Nc2nc(C)no2)ccc1C` gave a cytotoxicity at 70.5 h of 36.1%.
